The species named for assay [1] is Mus musculus. In words: Analgesic activity in zymosan-A induced inflammation GlyR3 knock out mouse model assessed as reduction in mechanical hyperalgesia. In kind it is functional. Set-up: scale not given: the % may be the effect or the level left.
In assay [2] the target is T1, Glycine receptor subunit alpha-3 (Mus musculus) (UniProt Q91XP5).
T1 sequence (whole entry): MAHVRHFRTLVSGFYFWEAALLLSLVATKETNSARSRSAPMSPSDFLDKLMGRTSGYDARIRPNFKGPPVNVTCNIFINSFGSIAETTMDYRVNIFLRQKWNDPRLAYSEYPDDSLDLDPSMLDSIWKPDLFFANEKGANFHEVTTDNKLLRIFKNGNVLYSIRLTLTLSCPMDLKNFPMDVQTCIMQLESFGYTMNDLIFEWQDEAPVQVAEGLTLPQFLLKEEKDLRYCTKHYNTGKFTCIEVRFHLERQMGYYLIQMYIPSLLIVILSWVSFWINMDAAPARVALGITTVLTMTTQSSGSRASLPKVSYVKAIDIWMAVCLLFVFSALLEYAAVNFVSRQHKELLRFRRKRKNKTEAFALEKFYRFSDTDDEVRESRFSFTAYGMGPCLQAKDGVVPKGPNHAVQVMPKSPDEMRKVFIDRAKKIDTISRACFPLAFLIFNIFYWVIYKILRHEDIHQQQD
Nature of the assay: Allosteric modulation of GlyRalpha3 in VGAT::ChR2 BAC transgenic mouse lumbar spinal cord slices assessed as increase in decay time constants of light-evoked Gly-IPSC at 100 uM by Whole cell patch clamp method. On the technique in general: In patch-clamp work, channel activity is measured electrically.

In assay [3] the target is T2, Glycine receptor alpha-3/beta (Homo sapiens, UniProt O75311+P48167). In words: Positive allosteric modulation of human GlyRalpha3beta expressed in CHO cells assessed as potentiation of EC20 glycine-induced ion flux at 10 uM by HT assay. In kind it is cell-based.
Assay [4] concerns the target T1, Glycine receptor subunit alpha-3 (Mus musculus). In words: Allosteric modulation of zymosan-A treated GlyRalpha3 in VGAT::ChR2 BAC transgenic mouse lumbar spinal cord slices assessed as increase in decay time constants of light-evoked Gly-IPSC at 100 uM by Whole cell patch clamp method.
The target in assay [5] is T2, Glycine receptor alpha-3/beta. Nature of the assay: Positive allosteric modulation of human GlyRalpha3beta expressed in CHO cells assessed as potentiation of EC5 to EC10 glycine-induced response at 10 uM by manual patch clamp assay. Format: cell-based.
Assay [6] is filed under the species Mus musculus. Nature of the assay: Analgesic activity in zymosan-A induced inflammation mouse model assessed as reduction in mechanical hyperalgesia. Also noted: scale not given: the % may be the effect or the level left. Format: functional.
Assay [7] has as its target T2, Glycine receptor alpha-3/beta. Nature of the assay: Positive allosteric modulation of human GlyRalpha3beta expressed in CHO cells assessed as potentiation of EC20 glycine-induced response at 5.9 uM by fluorescence based HTS assay. Format: cell-based.
Assay [8] has as its target Glycine receptor (alpha-1/beta) (Homo sapiens) (UniProt P23415+P48167). Nature of the assay: Positive allosteric modulation of human GlyRalpha1beta expressed in HEK293 cells assessed as potentiation of glycine-induced calcium flux by calcium dye-5 based FLIPR assay relative to glycine. In kind it is cell-based. A general note: Calcium assays in cells follow changes in intracellular calcium, usually with a dye or a luminescent sensor.

For assay [9], the target named is T3, Glycine receptor subunit alpha-1 (Mus musculus, UniProt Q64018).
T3 sequence (Q64018 whole entry): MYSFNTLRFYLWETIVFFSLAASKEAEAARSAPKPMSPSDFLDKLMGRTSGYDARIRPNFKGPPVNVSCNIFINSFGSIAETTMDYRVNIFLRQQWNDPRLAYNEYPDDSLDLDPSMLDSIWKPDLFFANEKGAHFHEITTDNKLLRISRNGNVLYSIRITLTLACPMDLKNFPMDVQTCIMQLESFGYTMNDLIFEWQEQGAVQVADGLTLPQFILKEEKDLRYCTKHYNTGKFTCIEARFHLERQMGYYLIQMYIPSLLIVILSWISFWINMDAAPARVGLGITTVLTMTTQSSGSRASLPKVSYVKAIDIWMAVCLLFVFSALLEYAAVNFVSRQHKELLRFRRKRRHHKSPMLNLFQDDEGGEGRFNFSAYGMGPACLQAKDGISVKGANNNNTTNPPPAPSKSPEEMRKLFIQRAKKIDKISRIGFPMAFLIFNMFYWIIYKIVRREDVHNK
In words: Positive allosteric modulation of mouse GlyRalpha1 expressed in HEK293 cells assessed as potentiation of glycine-induced calcium flux by calcium dye-5 based FLIPR assay. Format: cell-based.

In assay [10] the target is T2, Glycine receptor alpha-3/beta. Nature of the assay: Positive allosteric modulation of human GlyRalpha3beta expressed in HEK293 cells assessed as potentiation of glycine-induced calcium flux by calcium dye-5 based FLIPR assay relative to glycine. Format: cell-based.
The target in assay [11] is T4, Glycine receptor subunit alpha-1 (Mus musculus) (UniProt Q64018).
T4 sequence (whole entry): T3 sequence (Q64018 whole entry)
Nature of the assay: Positive allosteric modulation of mouse GlyRalpha1 expressed in HEK293 cells assessed as potentiation of glycine-induced calcium flux by calcium dye-5 based FLIPR assay relative to glycine. In kind it is cell-based.

Assay [12] deals with T5, Glycine receptor subunit alpha-3 (Homo sapiens) (UniProt O75311).
T5 sequence (whole entry): T1 sequence (whole entry) with N32D, T372M, V398M, V399T, A406P
Nature of the assay: Positive allosteric modulation of human GlyRalpha3 expressed in HEK293 cells assessed as potentiation of glycine-induced calcium flux by calcium dye-5 based FLIPR assay relative to glycine. In kind it is cell-based.

For assay [13], the target named is T1, Glycine receptor subunit alpha-3 (Mus musculus). In words: Positive allosteric modulation of mouse GlyRalpha3 expressed in HEK293 cells assessed as potentiation of glycine-induced calcium flux by calcium dye-5 based FLIPR assay relative to glycine. In kind it is cell-based.
The target in assay [14] is T6, Glycine receptor subunit alpha-3 (Mus musculus, UniProt Q91XP5).
T6 sequence (Q91XP5 whole entry): T1 sequence (whole entry)
In words: Positive allosteric modulation of mouse GlyRalpha3 expressed in HEK293 cells assessed as potentiation of glycine-induced calcium flux by calcium dye-5 based FLIPR assay. In kind it is cell-based.

Assay [15] has as its target T7, Glycine receptor subunit alpha-1 (Homo sapiens) (UniProt P23415).
T7 sequence (whole entry): T3 sequence (Q64018 whole entry) with F9L, D362E, G365A, N396S, K457Q
Nature of the assay: Positive allosteric modulation of human GlyRalpha1 expressed in HEK293 cells assessed as potentiation of glycine-induced calcium flux by calcium dye-5 based FLIPR assay relative to glycine. Format: cell-based.

The target of assay [16] is T7, Glycine receptor subunit alpha-1 (Homo sapiens). Nature of the assay: Positive allosteric modulation of human GlyRalpha1 expressed in HEK293 cells assessed as potentiation of glycine-induced current flux at 100 uM by electrophysiology method relative to control. Format: cell-based.
In assay [17] the target is T5, Glycine receptor subunit alpha-3 (Homo sapiens). In words: Positive allosteric modulation of human GlyRalpha3 expressed in HEK293 cells assessed as potentiation of glycine-induced current flux at 100 uM by electrophysiology method relative to control. In kind it is cell-based.
Assay [18] concerns the target T8, Glycine receptor subunit alpha-3 (Homo sapiens, UniProt O75311).
T8 sequence (O75311 whole entry): T1 sequence (whole entry) with N32D, T372M, V398M, V399T, A406P
In words: Positive allosteric modulation of human GlyRalpha3 expressed in HEK293 cells assessed as potentiation of glycine-induced current flux by electrophysiology method. In kind it is cell-based.

Drawing on ChEMBL document CHEMBL4219040, “Modulation of Glycine-Mediated Spinal Neurotransmission for the Treatment of Chronic Pain” (J Med Chem, 2018), this text covers Activity, Emax and EC50 for three molecules.

Numbering of substitutions follows the chain as printed.

Turning to `CC(C)(C)c1cccc(C(C)(C)C)c1O`, the Activity in the assay listed under Mus musculus [1] amounted to 16%; in assay [2], 54%; in [3], 116%; in assay [4] it was 23.5%; in assay [5] it was 309%; in the assay listed under Mus musculus [6] it was 44.3%. In addition, the Activity in assay [7] amounted to 134%.

Broadly, the Emax is the greatest response seen or fitted, relative to the assay's reference. Broadly, the EC50 is the concentration at which the effect is half-maximal. In the case of `CN1C(=O)[C@@H]2CN(S(=O)(=O)c3ccc4occc4c3)C[C@@H]2c2cnccc21`, the Emax in assay [8] came out at 104%; in [10], 102%; in [11] it was 93.5%; in assay [12] it was 100%; in [13], 63.5%; in assay [15] it was 102%. The concentration for a half-maximal effect (EC50) in [9] was found to be 268 nM; in assay [14] it was 490 nM.

As to `CC1=C[C@@H](/C=C(\C)CCCC2=CCN(CC(=O)O)C2=O)[C@]2(OC(=O)C(C)(O)C2=O)[C@@H]2[C@@H](C)CC[C@@H]12` (stereo partly drawn), the Activity in [16] worked out at 110%; in assay [17], 260%. Besides, the EC50 in [18] was 8500 nM.
